Tested on: male C57BL/6J mice fed C or WD
Experiment: Prevention experiment: MLN4924 twice/week during 16 weeks of WD feeding
Format: in vivo
Experimental: Mice fed WD became obese and insulin resistant. For both cohorts, body weight was measured weekly. Male C57BL/6J mice were fed C or WD for 16 weeks. Vehicle or MLN4924 (60 mg/kg) was administered via SQ injection twice/week for 16 weeks. Results are mean ±SEM. n=5-7. “*”, vs C+Veh; “#”, vs. WD+Veh, p<0.05.
Male C57BL/6J mice were purchased from the Jackson Laboratory (Bar Harbor, ME). Mice were fed a regular chow (C) diet or a Western diet (WD) that contains 42% fat calories and 0.2% cholesterol content (TD. 88137, Envigo Inc. Indianapolis, IN).
MLN4924 and TAS4464 were purchased from MedChemExpress (MCE, Monmouth Junction, NJ). For cell treatment, MLN4924 and TAS4464 were dissolved in DMSO. Cells were serum starved overnight and then treated with MLN4924, TAS4464 and/or insulin as indicated. For injection in mice, MLN4924 and TAS4464 were first dissolved in DMSO, which was further suspended in 10% (2-hydroxypropyl)-β-cyclodextrin (Sigma, St. Louis, MO). The final solution contains 1% DMSO. The subcutaneous injection volume is 200 µl/mouse.
Lipids were extracted in a mixture of chloroform: methanol (2:1; v: v), dried under nitrogen, and resuspended in isopropanol containing 1% triton X-100. Total cholesterol, free cholesterol and TG were measured with assay kits following the manufacturer’s instruction. Total cholesterol assay kit and TG assay kit were purchased from Pointe Scientific (Canton, MI).
Aspartate aminotransferase (AST) and alanine aminotransferase (ALT) assay kits were purchased from Pointe Scientific (Canton, MI). Free fatty acid assay kit was purchased from Biovision Inc. (Milpitas, CA). Insulin ELISA kit was purchased from Crystal Chem Inc. (Elk Grove Village, IL).
Next investigated was the glucose lowering effect of CRL inhibition in mice rendered obese and insulin resistant by 16-weeks of WD feeding. […] Next conducted was an intervention study in which MLN4924 treatment was initiated after mice were fed WD for 8 weeks that rendered mice obese and insulin resistant. […] In summary, robust evidence is provided herein that pharmacological CRL inhibition is an effective approach to lowering hyperglycemia.

[1] = WD 16 weeks, 60 mg/kg SQ twice/week

In the case of `NS(=O)(=O)OC[C@@H]1C[C@@H](n2ccc3c(N[C@H]4CCc5ccccc54)ncnc32)C[C@@H]1O` [MLN4924, ((1S,2S,4R)-4-(4-((1S)-2,3-dihydro-1H-inden-1-ylamino)-7H-pyrrolo[2,3-d]pyrimidin-7-yl)-2-hydroxycyclopentyl) methyl sulfamate], the tolerability / hepatotoxicity (16 weeks of MLN4924, 60 mg/kg SQ twice/week) is reported as “well tolerated and did not cause hepatotoxicity”, the “transaminase (ALT) elevation” value (C-fed mice, after 16 weeks of MLN4924) is reported as “did not cause transaminase (ALT) elevation” and the “blood glucose (6 h fast)” value [1] is reported as “completely normalized blood glucose”. The “reduction of hepatic cholesterol” value [1] was ~ 30%, the “reduction of hepatic triglycerides (TG)” value [1] was ~ 40% and the “serum ALT” value (WD-fed mice, 16 weeks of MLN4924) was “significantly reduced”.
